# Results: the Kinase Knowledgebase extract (Sharma et al. 2016)
# Target: PIK3CG (human) (UniProt P48736)
# Assay: Inhibition of PIK3CG Kinase Activity
# Sequence of PIK3CG (human) (P48736 whole entry, looked up): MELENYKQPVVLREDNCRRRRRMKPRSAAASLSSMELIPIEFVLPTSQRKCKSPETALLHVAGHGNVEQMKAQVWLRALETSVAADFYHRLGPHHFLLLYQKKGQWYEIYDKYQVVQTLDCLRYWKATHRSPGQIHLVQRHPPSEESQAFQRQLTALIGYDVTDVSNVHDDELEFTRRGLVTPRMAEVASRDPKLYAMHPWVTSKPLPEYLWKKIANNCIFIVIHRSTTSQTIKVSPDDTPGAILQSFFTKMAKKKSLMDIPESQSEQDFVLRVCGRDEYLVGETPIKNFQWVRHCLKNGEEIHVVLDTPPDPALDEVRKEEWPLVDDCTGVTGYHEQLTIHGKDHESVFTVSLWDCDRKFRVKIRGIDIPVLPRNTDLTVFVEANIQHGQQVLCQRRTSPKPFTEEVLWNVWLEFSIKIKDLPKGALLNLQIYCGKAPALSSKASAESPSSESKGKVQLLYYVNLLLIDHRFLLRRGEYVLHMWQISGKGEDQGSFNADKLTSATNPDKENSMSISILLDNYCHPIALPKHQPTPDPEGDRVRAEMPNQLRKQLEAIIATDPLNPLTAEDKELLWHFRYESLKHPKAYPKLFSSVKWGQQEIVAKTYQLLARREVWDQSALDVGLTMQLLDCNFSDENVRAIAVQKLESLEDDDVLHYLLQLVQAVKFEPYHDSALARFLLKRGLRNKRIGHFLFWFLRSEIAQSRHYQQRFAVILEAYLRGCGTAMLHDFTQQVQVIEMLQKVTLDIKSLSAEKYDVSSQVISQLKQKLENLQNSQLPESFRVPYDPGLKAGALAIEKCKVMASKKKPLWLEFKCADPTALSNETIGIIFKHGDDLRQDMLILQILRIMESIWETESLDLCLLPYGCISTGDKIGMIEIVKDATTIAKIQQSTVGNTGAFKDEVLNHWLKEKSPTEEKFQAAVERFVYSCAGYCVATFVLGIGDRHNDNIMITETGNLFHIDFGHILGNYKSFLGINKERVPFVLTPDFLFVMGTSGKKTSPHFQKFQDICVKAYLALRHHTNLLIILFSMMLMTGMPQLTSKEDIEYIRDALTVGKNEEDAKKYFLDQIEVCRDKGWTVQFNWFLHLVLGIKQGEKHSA
row,Ki [µM],Compound
1,< 0.1,COc1cc(-c2ccc3c(n2)CN(c2ccc(N4CCC[C@@H]4CO)nc2)C3=O)cnc1OC
2,< 0.1,CCn1cc(N2Cc3nc(-c4cnc(OC)c(OC)c4)ccc3C2=O)cn1
3,< 0.1,Cc1cc(-c2cncc(OC(F)F)c2)nc2c1C(=O)N(c1cncc(CC#N)c1)C2C (stereo unspecified)
4,< 0.1,COc1ncc(-c2cc(C)c3c(n2)C(C)N(c2cnn(CC(F)(F)F)c2)C3=O)cc1OC(F)F (stereo unspecified)
5,< 0.1,COc1cc(-c2ccc3c(n2)C(C)N(c2cccc(C(O)C(F)(F)F)n2)C3=O)cnc1OC (stereo unspecified)
6,< 0.1,COc1cc(-c2ccc3c(n2)CN(c2ccc(OCCCC(F)(F)F)nc2)C3=O)cnc1OC
7,< 0.1,COc1cc(-c2ccc3c(n2)CN(c2ccn(C)n2)C3=O)cnc1OC
8,< 0.1,COc1cc(-c2ccc3c(n2)CN(c2ccn(CC4COCCO4)n2)C3=O)cnc1OC (stereo unspecified)
9,< 0.1,CCOc1ncc(-c2cc(C)c3c(n2)CN(c2cnn(CC)c2)C3=O)cc1OC
10,< 0.1,COc1ncc(-c2cc(C)c3c(n2)CN(c2cnn(C(C)(C)C#N)c2)C3=O)cc1OCC1CC1
11,< 0.1,COc1cc(-c2cc(C)c3c(n2)C(C)(C)N(c2cnn(CC(F)(F)F)c2)C3=O)cnc1OC
12,< 0.1,CCOc1cc(-c2cc(C)c3c(n2)CN(c2ccon2)C3=O)cnc1OC
13,< 0.1,COc1ncc(-c2cc(C)c3c(n2)C(C)(C)N(c2cnn(CC(F)(F)F)c2)C3=O)cc1C(=O)NC(C)C
14,< 0.1,COc1cc(-c2cc(C)c3c(n2)C(C)(C)N(c2cnn(CC(F)F)c2)C3=O)cnc1C
15,< 0.1,COc1cc(-c2cc(C)c3c(n2)CN(c2cnn(C4CC4)c2)C3=O)cnc1OC
16,< 0.1,C=C1c2nc(-c3cnc(OC)c(OC)c3)ccc2C(=O)N1c1cnn(CC#N)c1
17,< 0.1,COc1cc(-c2cc(C)c3c(n2)CN(c2nccs2)C3=O)cnc1OC
18,< 0.1,COc1cc(-c2ccc3c(n2)C(C)N(c2cncc(C(O)C(F)(F)F)c2)C3=O)cnc1OC (stereo unspecified)
19,< 0.1,CCOc1ncc(-c2cc(C)c3c(n2)[C@]2(CCCO2)N(c2cnn(CC(F)(F)F)c2)C3=O)cc1OC
20,< 0.1,Cc1cc(-c2cnc(C)c(OCC(F)F)c2)nc2c1C(=O)N(c1ccn([C@H]3CCOC3)n1)C2
21,< 0.1,Cc1cc(-c2cncc(OCC(F)F)c2)nc2c1C(=O)N(c1cnn(CC(F)(F)F)c1)[C@@H]2C
22,< 0.1,COc1cc(-c2ccc3c(n2)CN(c2cnn(Cc4ccn(C)n4)c2)C3=O)cnc1OC
23,< 0.1,COc1cc(-c2cc(C)c3c(n2)CN(c2cncnc2)C3=O)cnc1OC
24,0.1 to 0.49,COc1cc(-c2ccc3c(n2)C(C)N(c2cncc(C(C)(C)C#N)c2)C3=O)cnc1OC (stereo unspecified)

row,Ki [µM],Compound
1,< 0.1,COc1cc(-c2ccc3c(n2)[C@@H](C)N(c2ccn(CC(C)(C)F)n2)C3=O)cnc1OC
2,< 0.1,CCc1ncc(-c2cc(C)c3c(n2)C(C)(C)N(c2cnn(CC(F)(F)F)c2)C3=O)cc1OC
3,< 0.1,COCc1cc(N2Cc3nc(-c4cnc(OC)c(OC)c4)ccc3C2=O)n[nH]1
4,< 0.1,Cc1cc(-c2cnc(C)c(C(=O)O)c2)nc2c1C(=O)N(c1cnn(CC(F)(F)F)c1)C2(C)C
5,0.1 to 0.49,COc1cc(-c2ccc3c(n2)CN(c2ccc(=O)n(CC4OCCO4)c2)C3=O)cnc1OC
6,< 0.1,CCOc1ncc(-c2cc(C)c3c(n2)CN(c2cc[nH]n2)C3=O)cc1OC
7,0.1 to 0.49,COc1cc(-c2ccc3c(n2)CN(c2ccnc(N(C)CCCN(C)C)c2)C3=O)cnc1OC
8,< 0.1,COc1cc(-c2cc(C)c3c(c2)CN(c2cnn(CC(F)(F)F)c2)C3=O)cnc1OC
9,< 0.1,COc1cc(-c2cc(C)c3c(c2)C(C)N(c2cnn(CC(F)(F)F)c2)C3=O)cnc1OC (stereo unspecified)
10,0.1 to 0.49,CCOC(=O)C(F)(F)c1ccc(N2Cc3nc(-c4cnc(OC)c(OC)c4)ccc3C2=O)cn1
11,< 0.1,COc1cc(-c2cc(C)c3c(n2)C(C)N(c2cnn(CC(F)F)c2)C3=O)cnc1OC (stereo unspecified)
12,< 0.1,COc1cncc(-c2cc(C)c3c(n2)C(C)(C)N(c2cnn(CC#N)c2)C3=O)c1
13,< 0.1,COc1cncc(N2Cc3nc(-c4cnc(OC)c(OC)c4)ccc3C2=O)c1
14,< 0.1,Cc1cc(-c2cncc(C(=O)N(C)C(C)CO)c2)nc2c1C(=O)N(c1cnn(CC(F)(F)F)c1)C2(C)C (stereo unspecified)
15,< 0.1,COc1cc(-c2cc(C)c3c(n2)[C@H](OC)N(c2cnn(CC(F)(F)F)c2)C3=O)cnc1OC
16,< 0.1,COc1ncc(-c2ccc3c(n2)[C@H](C)N(c2cnn(CC(F)(F)F)c2)C3=O)cc1O
17,< 0.1,COc1ncc(-c2cc(C)c3c(n2)CN(c2ccn(C4COC4)n2)C3=O)cc1OCC1CC1
18,< 0.1,COc1cc(-c2ccc3c(c2)CN(c2cccc(Cn4cncn4)c2)C3=O)cnc1OC
19,0.1 to 0.49,Cc1cc(-c2cncc(NC(=O)C(C)C)c2)nc2c1C(=O)N(c1cnn(CC(F)(F)F)c1)C2(C)C
20,0.1 to 0.49,COc1cc(-c2ccc3c(n2)C(C)N(c2ccc(N4CCC(O)C4)nc2)C3=O)cnc1OC (stereo unspecified)
21,< 0.1,COc1ncc(-c2cc(C)c3c(n2)C(C)(C)N(c2cnn(CC(F)(F)F)c2)C3=O)cc1C(=O)NCCN(C)C
22,< 0.1,COc1cc(-c2cc(C)c3c(n2)[C@@]2(CCCO2)N(c2cnn(CC(F)(F)F)c2)C3=O)cnc1OC
23,< 0.1,COc1ncc(-c2cc(C)c3c(n2)C(C)(C)N(c2cnn(CC(F)(F)F)c2)C3=O)cc1C(=O)NC1CC1
24,0.1 to 0.49,COc1ccc(-c2cc(C)c3c(n2)CN(c2cnn(CC(F)(F)F)c2)C3=O)c(OC)c1

row,Ki [µM],Compound
1,< 0.1,CCn1cc(N2Cc3nc(-c4cncc(OCC(F)(F)F)c4)cc(C)c3C2=O)cn1
2,< 0.1,Cc1cc(-c2cnc3ccccc3c2)nc2c1C(=O)N(c1cnn(CC(F)(F)F)c1)C2
3,< 0.1,CCOc1cc(-c2ccc3c(n2)CN(c2cnn(CC#N)c2)C3=O)cnc1OCC
4,< 0.1,CCn1nc(N2Cc3nc(-c4cnc(OC)c(OC)c4)ccc3C2=O)cc1COC
5,< 0.1,CCOc1cc(-c2cc(C)c3c(c2)CN(c2cnn(CC(F)(F)F)c2)C3=O)cnc1OCC
6,< 0.1,Cc1cc(-c2cccnc2NC(=O)C(C)(C)C)nc2c1C(=O)N(c1cnn(CC(F)(F)F)c1)C2
7,< 0.1,COc1cc(-c2cc(C)c3c(n2)C(C)(C)N(c2cnn(C[C@@H](C)O)c2)C3=O)cnc1OC
8,< 0.1,COc1cc(-c2ccc3c(n2)C(C)N(c2csc(SC)n2)C3=O)cnc1OC (stereo unspecified)
9,< 0.1,CCc1cc(-c2cnc(OC)c(OC)c2)nc2c1C(=O)N(c1cnn(CC(F)(F)F)c1)C2(C)C
10,< 0.1,COc1cc(-c2ccc3c(n2)CN(c2nccs2)C3=O)cnc1OC
11,0.1 to 0.49,COc1cc(-c2ccc3c(n2)CN(c2cncc(C#CCO)c2)C3=O)cnc1OC
12,< 0.1,COc1cc(-c2ccc3c(n2)CN(c2ccn(CC(F)(F)F)n2)C3=O)cnc1OC
13,< 0.1,COc1cc(-c2cc(C)c3c(n2)CN(c2cccc(C(C)(C)C#N)n2)C3=O)cnc1OC
14,< 0.1,COc1cc(-c2ccc3c(n2)CN(c2cnn(Cc4cc(C)on4)c2)C3=O)cnc1OC
15,< 0.1,COc1cncc(-c2cc(C)c3c(n2)CN(c2ccn(C)n2)C3=O)c1
16,< 0.1,CCn1cc(N2C(=O)c3c(C)cc(-c4cncc(OC)c4)nc3C2(C)C)cn1
17,< 0.1,CCOc1cncc(-c2cc(C)c3c(n2)[C@@](C)(OC)N(c2cnn(CC(F)(F)F)c2)C3=O)c1
18,0.1 to 0.49,Cc1cc(-c2cncc(C(=O)N3CCCC3)c2)nc2c1C(=O)N(c1cnn(CC(F)(F)F)c1)C2
19,< 0.1,CCOc1cncc(-c2cc(C)c3c(n2)C(C)(C)N(c2cnn(CC(F)F)c2)C3=O)c1
20,0.1 to 0.49,COc1cc(-c2ccc3c(c2)CN(c2ncc(C)s2)C3=O)cnc1OC
21,< 0.1,COc1cc(-c2ccc3c(n2)CN(c2cnn(CC(C)O)c2)C3=O)cnc1OC (stereo unspecified)
22,0.1 to 0.49,COc1cc(-c2ccc3c(c2)CN(c2cnn(CC#N)c2)C3=O)cnc1Cl
23,< 0.1,COc1cc(-c2ccc3c(n2)CN(c2cnn(C)c2)C3=O)cnc1OC
24,< 0.1,Cc1cc(-c2cnc(C)c(O)c2)nc2c1C(=O)N(c1cnn(CC(F)(F)F)c1)C2(C)C

row,Ki [µM],Compound
1,< 0.1,CCn1ccc(N2Cc3nc(-c4cnc(OC)c(OC(C)C)c4)cc(C)c3C2=O)n1
2,< 0.1,C#CCNC(=O)c1cncc(-c2cc(C)c3c(n2)C(C)(C)N(c2cnn(CC(F)(F)F)c2)C3=O)c1
3,< 0.1,COc1ncc(-c2cc(C)c3c(n2)C(C)(C)N(c2cnn(CC(F)(F)F)c2)C3=O)cc1C(=O)NCC(C)(C)O
4,< 0.1,COc1cc(-c2ccc3c(n2)CN(c2cnn([C@H](C)CO)c2)C3=O)cnc1OC
5,< 0.1,COc1cc(-c2cc(C)c3c(n2)C(OC(C)C)N(c2cnn(CC(F)(F)F)c2)C3=O)cnc1OC (stereo unspecified)
6,< 0.1,COc1cc(-c2cc(C)c3c(n2)CN(c2ccnc(C#N)c2)C3=O)cnc1OC
7,< 0.1,COc1cncc(-c2cc(C)c3c(n2)C(C)N(c2csc(C)n2)C3=O)c1 (stereo unspecified)
8,< 0.1,COc1cc(-c2cc(C)c3c(n2)C(O)(C2CC2)N(c2cnn(CC(F)(F)F)c2)C3=O)cnc1OC (stereo unspecified)
9,< 0.1,CCn1cnc(N2Cc3cc(-c4cnc(OC)c(OC)c4)ccc3C2=O)n1
10,< 0.1,COc1cc(-c2cc(C)c3c(n2)CN(c2csc(CO)c2)C3=O)cnc1OC
11,< 0.1,CCn1cc(N2Cc3nc(-c4ccc(OC)c(OC)c4)cc(C)c3C2=O)cn1
12,< 0.1,COc1cc(-c2ccc3c(n2)CN(c2ccsc2)C3=O)cnc1OC
13,< 0.1,CCc1cc(N2Cc3nc(-c4cnc(OC)c(OC)c4)cc(C)c3C2=O)nn1C
14,< 0.1,COc1cc(-c2ccc3c(n2)CN(c2ccn(C[C@H](C)O)n2)C3=O)cnc1OC
15,< 0.1,Cc1cc(-c2cncc(OC(F)F)c2)nc2c1C(=O)N(c1cnn(C(C)(C)C#N)c1)C2C (stereo unspecified)
16,< 0.1,COc1cc(-c2ccc3c(n2)CN(c2cnn(CCC#N)c2)C3=O)cnc1OC
17,< 0.1,COc1cc(-c2cc(C)c3c(n2)C2(CCOCC2)N(c2cnn(C(C)(C)C#N)c2)C3=O)cnc1OC
18,< 0.1,COc1cc(-c2ccc3c(n2)CN(c2cnn(Cc4cn(C)cn4)c2)C3=O)cnc1OC
19,< 0.1,C#CCNC(=O)c1cc(-c2cc(C)c3c(n2)C(C)(C)N(c2cnn(CC(F)(F)F)c2)C3=O)cnc1OC
20,< 0.1,Cc1cc(-c2cnc(N)c(OC(F)F)c2)nc2c1C(=O)N(c1cnn(CC(F)(F)F)c1)C2
21,< 0.1,CCn1ccnc1Cn1cc(N2Cc3nc(-c4cnc(OC)c(OC)c4)ccc3C2=O)cn1
22,< 0.1,COc1ccc(-c2cc(C)c3c(n2)CN(c2cnn(CC(F)(F)F)c2)C3=O)s1
23,< 0.1,COc1ncc(-c2cc(C)c3c(n2)CN(c2cnn(CC#N)c2)C3=O)cn1
24,< 0.1,COc1cc(-c2cc(C)c3c(n2)C2(CCOCC2)N(c2cnn(CC(F)(F)F)c2)C3=O)cnc1OC(C)C
